This passage reports CC50, IC50 and IC90 results from patent publication US20250026734A1 (priority 2021, published 2025).

A short description of series [1]: in vitro. The conditions noted are these: human.
The next series relates to SARS-CoV-2 (WK-521). Put plainly: microbe, parasite or virus in culture. The format is cell-based. Conditions: Severe acute respiratory syndrome coronavirus 2, HEK-293T, 72 h; for IC50: read-out: IC50 (concentration of agent which reduces viral production and replication by 50%); for IC90: read-out: IC90 (concentration of agent which reduces viral production and replication by 90%).

A short description of series [2]: in vitro. Conditions: African green monkey.
Series [3] has as its system SARS-CoV (SARS-CoV-HKU-39849). Description: microbe, parasite or virus in culture. Conditions: Severe acute respiratory syndrome coronavirus, HEK-293T. The format is cell-based.
Series [4] relates to MERS-CoV (MERS-CoV-EMC/2012). Put plainly: microbe, parasite or virus in culture. The format is cell-based. The conditions noted are these: Middle East respiratory syndrome-related coronavirus, HEK-293T.

The structures appear in SMILES notation.

For the compound `CCCCn1c(=O)c2ccc(N)cc2c2cc(C(O)(C(F)(F)F)C(F)(F)F)ccc21` [NR-31-5], in the series “in vitro [1]”, the CC50 was greater than 20 µM. In the series with SARS-CoV-2 (WK-521), the IC50 came to 0.546 µM and the IC90 is 2.63 µM.
Take `CCCCn1c(=O)c2ccc(NC(=O)C(C)N)c(F)c2c2cc(C(O)(C(F)(F)F)C(F)(F)F)ccc21` (centres unmarked) [NR-44]: the CC50 in the series “in vitro [1]” amounted to 10.3 µM. In the series on SARS-CoV-2 (WK-521), the IC50 was determined as 0.38 µM and the IC90 stood at 3.76 µM.
For `CCCCn1c(=O)c2ccc(NCCO)cc2c2cc(C(O)(C(F)(F)F)C(F)(F)F)ccc21` [NR-31], the CC50 in “in vitro [2]” is 17.6 µM; in “in vitro [1]”, greater than 20 µM. Also, the IC50 in series [3] turned out to be 0.74 µM; in series [4] it was 2.15 µM; in the series on SARS-CoV-2 (WK-521), 0.063 µM. Moreover, the IC90 in series [3] was 6.24 µM; in series [4], 5.96 µM; in the series with SARS-CoV-2 (WK-521), 1.76 µM.
As to `CCCCn1c(=O)c2ccc(NCCN(C)C)cc2c2cc(C(O)(C(F)(F)F)C(F)(F)F)ccc21` [NR-105], the CC50 in the series “in vitro [1]” was determined as 7.4 µM. In the series with SARS-CoV-2 (WK-521), the IC50 was 1.48 µM and the IC90 was greater than 10 µM.
`CCCCn1c(=O)c2ccc(NCC(O)CO)cc2c2cc(C(O)(C(F)(F)F)C(F)(F)F)ccc21` (centres unmarked) [NR-90]: the results for the IC50 (in series [3]; in series [4]; in the series with SARS-CoV-2 (WK-521)) were 2.4 µM, 3.84 µM and 0.58 µM, respectively. Moreover, the IC90 came to 14.2 µM in series [3], 13.6 µM in series [4] and 3.87 µM with SARS-CoV-2 (WK-521). For the same compound, in the series “in vitro [1]”, the CC50 is greater than 20 µM.
In “in vitro [1]”, `CCCCn1c(=O)c2ccc(C(CCO)CCO)cc2c2cc(C(O)(C(F)(F)F)C(F)(F)F)ccc21` [NR-101] had a CC50 greater than 20 µM. In the series with SARS-CoV-2 (WK-521), the IC50 came out at 0.54 µM and the IC90 was greater than 10 µM.
On the same counts, the results for `CC(C)Cn1c(=O)c2ccc(NCCO)cc2c2cc(C(O)(C(F)(F)F)C(F)(F)F)ccc21` [NR-91] are greater than 20 µM, 0.51 µM and 4 µM.
`CCCCn1c(=O)c2cc(NC(=O)C(C)N)ccc2c2cc(C(O)(C(F)(F)F)C(F)(F)F)ccc21` (centres unmarked) [NR-50] gave a CC50 in the series “in vitro [1]” of 12 µM. Moreover, in the series with SARS-CoV-2 (WK-521), the IC50 was 0.65 µM and the IC90 stood at 4.6 µM.
Take `CCCCn1c(=O)c2ccc(N)c(SC)c2c2cc(C(O)(C(F)(F)F)C(F)(F)F)ccc21` [NR-87]: the CC50 in the series “in vitro [1]” was 18.2 µM. Also, in the series with SARS-CoV-2 (WK-521), the IC50 came out at 0.85 µM and the IC90 turned out to be 4.9 µM.
On the same counts, the results for `CCCCn1c(=O)c2ccc(NC(=O)CCO)cc2c2cc(C(O)(C(F)(F)F)C(F)(F)F)ccc21` [NR-38] are greater than 20 µM, 0.058 µM and greater than 20 µM.
On the same counts, the results for `CCCn1c(=O)c2ccc(NCCO)cc2c2cc(C(O)(C(F)(F)F)C(F)(F)F)ccc21` [NR-92] are greater than 20 µM, 0.72 µM and 3.42 µM.
Consider `CCCCn1c(=O)c2cc(NC(=O)[C@@H]3C[C@@H](O)CN3)ccc2c2cc(C(O)(C(F)(F)F)C(F)(F)F)ccc21` [NR-52], for which the CC50 in the series “in vitro [1]” worked out at 18.1 µM. Besides, in the series with SARS-CoV-2 (WK-521), the IC50 turned out to be 0.14 µM and the IC90 came to 2.43 µM.
On the same counts, the results for `CCCCn1c(=O)c2ccc(NC(=O)CO)cc2c2cc(C(O)(C(F)(F)F)C(F)(F)F)ccc21` [NR-17] are greater than 20 µM, 0.519 µM and 3.35 µM.
`CCCCn1c(=O)c2cc(F)c(N)cc2c2cc(C(O)(C(F)(F)F)C(F)(F)F)ccc21` [NR-54] displayed a CC50 in “in vitro [1]” of 27.2 µM. In the series on SARS-CoV-2 (WK-521), the IC50 was 0.94 µM and the IC90 stood at 4.64 µM.
On the same counts, the results for `CCCCn1c(=O)c2ccc(NCCN)cc2c2cc(C(O)(C(F)(F)F)C(F)(F)F)ccc21` [NR-102] are 5.5 µM, 0.75 µM and 2.4 µM.
As for `CCCCn1c(=O)c2ccc(NC(=O)[C@H](N)CO)cc2c2cc(C(O)(C(F)(F)F)C(F)(F)F)ccc21` [NR-47], the CC50 in “in vitro [1]” is 11.7 µM. In the series on SARS-CoV-2 (WK-521), the IC50 is 0.7 µM and the IC90 amounted to 3.3 µM.
For the compound `CCCCn1c(=O)c2cc(F)c(NC3CCOC3)cc2c2cc(C(O)(C(F)(F)F)C(F)(F)F)ccc21` (centres unmarked) [NR-78], the CC50 in the series “in vitro [1]” turned out to be 17.8 µM. Besides, in the series on SARS-CoV-2 (WK-521), the IC50 stood at 0.65 µM and the IC90 was 3.59 µM.
On the same counts, the results for `CCCCn1c(=O)c2ccc(NCCCCCO)cc2c2cc(C(O)(C(F)(F)F)C(F)(F)F)ccc21` [NR-100] are greater than 20 µM, 0.59 µM and greater than 10 µM.
`CCCCn1c(=O)c2ccc(NC(=O)[C@H]3CC(O)CN3)cc2c2cc(C(O)(C(F)(F)F)C(F)(F)F)ccc21` (some centres unmarked) [NR-30]: the IC50 was 6.95 µM in series [3], 12.5 µM in series [4] and 0.059 µM with SARS-CoV-2 (WK-521). Further, the IC90 in series [3] came to 19.4 µM; in series [4] it was 21.8 µM; in the series on SARS-CoV-2 (WK-521) it was 1.84 µM. In the series “in vitro [1]”, the CC50 is 13.6 µM.
`CCCCn1c(=O)c2ccc(NCCCCO)cc2c2cc(C(O)(C(F)(F)F)C(F)(F)F)ccc21` [NR-99]: the CC50 in “in vitro [1]” was greater than 20 µM. In the series with SARS-CoV-2 (WK-521), the IC50 is 1.3 µM and the IC90 was greater than 10 µM.
On the same counts, the results for `CCCCn1c(=O)c2ccc(NCC(N)=O)cc2c2cc(C(O)(C(F)(F)F)C(F)(F)F)ccc21` [NR-96] are greater than 20 µM, 0.68 µM and 4 µM.
On the same counts, the results for `CCCCn1c(=O)c2cc(NC=O)ccc2c2cc(C(O)(C(F)(F)F)C(F)(F)F)ccc21` [NR-86] are 16.7 µM, 0.08 µM and 3.07 µM.
Take `CCCCn1c(=O)c2ccc(NC(CO)CO)cc2c2cc(C(O)(C(F)(F)F)C(F)(F)F)ccc21` [NR-89]: the IC50 in series [3] stood at 4.74 µM; in series [4], 6.77 µM; in the series on SARS-CoV-2 (WK-521), 0.35 µM. Further, the IC90 stood at 20.2 µM in series [3], 19 µM in series [4] and 6.1 µM with SARS-CoV-2 (WK-521). Moreover, the CC50 in the series “in vitro [1]” was greater than 20 µM.
As to `CCCCn1c(=O)c2ccc(NCCCO)cc2c2cc(C(O)(C(F)(F)F)C(F)(F)F)ccc21` [NR-98], the CC50 in “in vitro [1]” was greater than 20 µM. In the series with SARS-CoV-2 (WK-521), the IC50 came to 1.16 µM and the IC90 was greater than 10 µM.
On the same counts, the results for `CCCCn1c(=O)c2cc(NC(=O)NCCO)ccc2c2cc(C(O)(C(F)(F)F)C(F)(F)F)ccc21` [NR-72] are 9 µM, 0.62 µM and 2.29 µM.
In turn, `CCCCn1c(=O)c2ccc(NCCC)cc2c2cc(C(O)(C(F)(F)F)C(F)(F)F)ccc21` [NR-103] yielded a CC50 in “in vitro [1]” greater than 20 µM. Besides, in the series on SARS-CoV-2 (WK-521), the IC50 was 2.35 µM and the IC90 was greater than 10 µM.
The compound `CCCCn1c(=O)c2ccc(NC(=O)C(C)N)cc2c2cc(C(O)(C(F)(F)F)C(F)(F)F)ccc21` (centres unmarked) [NR-28] yielded a CC50 in the series “in vitro [1]” of 11.8 µM. Further, in the series with SARS-CoV-2 (WK-521), the IC50 worked out at 0.12 µM and the IC90 worked out at 1.68 µM.
Turning to `CCCCn1c(=O)c2ccc(NC(C)=O)cc2c2cc(C(O)(C(F)(F)F)C(F)(F)F)ccc21` [TK-04], the CC50 in the series “in vitro [1]” is 7.13 µM. For the same compound, in the series with SARS-CoV-2 (WK-521), the IC50 was 0.576 µM and the IC90 came to 5.97 µM.
On the same counts, the results for `CCCCn1c(=O)c2cc(F)c(NCCO)cc2c2cc(C(O)(C(F)(F)F)C(F)(F)F)ccc21` [NR-56] are 29.5 µM, 0.29 µM and 8.07 µM.
On the same counts, the results for `CCCCn1c(=O)c2ccc(NC(=O)C(C)C)cc2c2cc(C(O)(C(F)(F)F)C(F)(F)F)ccc21` [NR-16] are 15.8 µM, 0.575 µM and 2.03 µM.
On the same counts, the results for `CCCCn1c(=O)c2cc(F)c(NCc3ccc(O)cc3)cc2c2cc(C(O)(C(F)(F)F)C(F)(F)F)ccc21` [NR-55] are greater than 80 µM, 0.15 µM and 6.79 µM.
